Data taken from US6569902B2, “Nitrone inhibition of cancer development” (Oklahoma Medical Research Foundation, priority 2000, dated 2003).

Tests used:
[1] = system: livers of male Wistar rats fed the CDAA diet; assay: Example 2: oxidative hepatocyte injuries (8-OHdG, TBARS); type: in vivo, rat
From the text: Animal experiment. After acclimation, rats were divided equally into 22 groups consisting of 5 animals each. Animals in group 1 received the CDAA diet alone. […] Groups 5-7, 8-10, 11-13 and 14-16 received the CDAA diet containing the low, middle, and high doses of 4-OHPBN, 3-OHPBN, 2-OHPBN and 2-SPBN, respectively. Group 17 received the CSAA diet alone. […] All animals were sacrificed by exsanguination under light ether anesthesia 16 weeks after commencement, and the livers excised. Slices 5-mm-thick were taken from the left lateral, median and right lateral lobes of the livers, fixed in 10% neutrally-buffered formalin for 24 hours and then embedded in paraffin. Five serial 4-μm-thick sections were prepared from each fixed liver slice and used for histological and immunohistochemical assessment as described below. The remaining portions of the livers were immediately frozen under liquid nitrogen and stored at −80° C. until use.
Determination of oxidative hepatocyte injuries. Levels of oxidative damage to the hepatocytes were determined on frozen liver samples. Oxidative damage to nuclear DNA was assessed as previously described, using the amount of 8-hydroxydeoxyguanosine (8-OHdG) to 10^6 deoxyguanosine (dG) ratio as a parameter (Nakae et al. 1995). Oxidative injury to extra-nuclear components was assessed as described elsewhere, by determining picomole malondialdehyde equivalent (MDA eq.) levels of 2-thiobarbituric acid-reacting substances (TBARS) per milligram protein (Nakae et al. 1990).
Statistics. Inter-group differences in quantitative data for multiple groups were recognized to be significant, when p values smaller than 0.05 were obtained by the Dunnett multiple comparison test employed after one-way analysis of variance to determine the variation among the group means followed by the Bartlett's test to determine the homogeniety of variance.

[2] = system: rat liver microsome peroxidation; conditions: read-out: IC50, inhibition of rat liver microsome peroxidation; cited from earlier work
[3] = cited from earlier work

For CC(C)(C)[N+]([O-])=Cc1ccccc1 [PBN, phenyl N-tert-butyl nitrone], the “nuclear DNA 8-OHdG content increased by CDAA diet feeding” value ([1]; all doses, CDAA diet 16 weeks) is given as “significantly inhibited”, the “TBARS level enhanced by CDAA feeding” value ([1]; high dose 0.090% only) is given as “significantly inhibited” and the IC50 [2] is given as 5 mM. The half-life ([3]; in rats) was “about 132 minutes” and the tissue distribution ([3]; rat, in vivo) was “readily and rapidly distributed almost equally to all tissues”.
